Measurements as given in patent EP0803251B1, “Immediate release pH-independent solid dosage form of cisapride” (JANSSEN PHARMACEUTICA N.V., priority 1996, dated 1997).
One block for each compound: values may come before it.

Tests used:
[1] = Dissolution of tablets at different pH-values, USP test <711>, USP-2 dissolution apparatus (paddle); type: physicochemical; details: conclusion in words
Procedure: The dissolution of tablets comprising cisapride-(L)-tartrate having the composition and prepared as described in Example 1 was compared with tablets comprising cisapride monohydrate instead of cisapride-(L)-tartrate (the rest of the composition and the preparation being the same) at different pH-values.
The test tablet was brought in a glass container containing 900 ml of the specified buffer at a temperature of 37 °C. The stirring is performed by a paddle at a rotational speed of 50 rpm (rotations per minute). This test is s set forth in USP test <711> in a USP-2 dissolution apparatus. This latter test is described in US Pharmacopeia XXII, pp 1578-1579. a) pH = ± 1.5 (HCl : 0.1 N)

[2] = clinical; details: in vivo; for tmax: po
Procedure: A standard breakfast consists of four slices of bread, one slice of ham, one slice of cheese, butter, jelly and two cups of coffee or tea with if desired milk and/or sugar, was served. […] Thereafter, subjects could resume their usual diet.
The trial medication was taken with 100 ml water.
Blood samples were taken until 48 h post-dosing.
AUClast area under the plasma concentration-time curve from time 0 to the last time point (last quantifiable concentration, calculated by linear trapezoidal summation. AUC∞ area under the plasma concentration-time extrapolated to infinity t½term terminal half-life, defined as 0.693/Sz

[3] = Dissolution of salts of cisapride in artificial gastric juice; type: physicochemical
[4] = formulations containing cisapride-(L)-tartrate release cisapride in a racemic form; cited from earlier work
[5] = human, in vivo
From the text: (AUC is the abbreviation of Area Under the Curve, which is an indication of the amount of active ingredient that is present in the blood).

dissolution compared with cisapride monohydrate ([1]; 0.1 N HCl (pH = ± 1.5)): comparable
dissolution compared with cisapride monohydrate ([1]; pH 4.5): clearly better
dissolution compared with cisapride monohydrate ([1]; pH = 6.5): clearly superior
tmax ([2]; human): 2.1 ± 0.7 h
tmax ([2]; human, tmax): 1.4 ± 0.4 h
bioequivalence of the tartrate and monohydrate formulations [2]: bioequivalent
bioequivalence with respect to the total exposure (AUC∞) [2]: bioequivalence is demonstrated
influence of fed or fasting conditions on absorption, peak levels and total exposure [2]: little influence
dissolution in artificial gastric juice ([3]; compared with other salts of cisapride): better dissolution
Compound: COc1cc(N)c(Cl)cc1C(=O)NC1CCN(CCCOc2ccc(F)cc2)CC1OC (racemic) [cisapride-(L)-tartrate]

Compound: COc1cc(N)c(Cl)cc1C(=O)NC1CCN(CCCOc2ccc(F)cc2)CC1OC (racemic) [reference compound]
dissolution compared with cisapride monohydrate ([3]; salt forms of cisapride): dissolve slower than the cisapride monohydrate itself

Compound: (-)-cisapride-(L)-tartrate
dissolution rates of the diastereomeric salt forms [4]: equal dissolution rates

Compound: (+)-cisapride-(L)-tartrate
dissolution rates of the diastereomeric salt forms [4]: equal dissolution rates

higher exposure of cisapride in comparison with the fasting conditions ([2]; human): 29%
higher peak levels of cisapride in comparison with the fasting conditions ([2]; human): 33%
tmax ([2]; human): 2.3 ± 0.6 h
tmax ([2]; human, tmax): 1.7 ± 0.5 h
bioequivalence of the tartrate and monohydrate formulations [2]: bioequivalent
ratio of AUC in fed state over AUC in fasted state [5]: about 1.35
Compound: COc1cc(N)c(Cl)cc1C(=O)N[C@H]1CCN(CCCOc2ccc(F)cc2)C[C@H]1OC (relative stereo) [cisapride monohydrate, cis-4-amino-5-chloro-N-[1-[3-(4-fluorophenoxy)propyl]-3-methoxy-4-piperidinyl]-2-methoxybenzamide, reference compound]
